Results reported in ChEMBL document CHEMBL5055656, “Synthesis of novel indole-thiazolidinone hybrid structures as promising scaffold with anticancer potential” (Bioorg Med Chem, 2021).
Activity calls are given as the source filed them. No cut-off for these calls is given here.

Experiments:
[1] = tested on: HepG2; test: Cytotoxicity against human HepG2 cells assessed as cell growth inhibition measured after 72 hrs by MTT assay; assay type: functional
[2] = tested on: HCT-116; test: Cytotoxicity against human HCT-116 cells assessed as cell growth inhibition measured after 72 hrs by MTT assay; assay type: functional
[3] = tested on: WM793; test: Cytotoxicity against human WM793 cells assessed as cell growth inhibition measured after 72 hrs by MTT assay; assay type: functional
[4] = Cytotoxicity against human HaCaT cells assessed as cell growth inhibition measured after 72 hrs by MTT assay; assay type: cell-based
[5] = tested on: HepG2; test: Cytotoxicity against human HepG2 cells assessed as cell growth inhibition measured after 48 hrs by MTT assay; assay type: functional
[6] = tested on: HepG2; test: Cytotoxicity against human HepG2 cells assessed as cell growth inhibition measured after 24 hrs by neutral red uptake assay; assay type: functional
[7] = tested on: HepG2; test: Cytotoxicity against human HepG2 cells assessed as cell growth inhibition measured after 72 hrs by neutral red uptake assay; assay type: functional
[8] = tested on: HepG2; test: Cytotoxicity against human HepG2 cells assessed as cell growth inhibition measured after 48 hrs by LDH assay; assay type: functional
[9] = (§1) Cytotoxicity against mouse BALB/3T3 cells assessed as cell growth inhibition measured after 24 hrs by MTT assay; assay type: cell-based; conditions: BALB/3T3 cells
[10] = tested on: BALB/3T3; test: as §1; assay type: cell-based; conditions: balb/3t3, 24 h
[11] = (§2) Cytotoxicity against mouse BALB/3T3 cells assessed as cell growth inhibition measured after 72 hrs by neutral red uptake assay; assay type: cell-based; conditions: BALB/3T3 cells
[12] = tested on: BALB/3T3; test: as §2; assay type: cell-based; conditions: balb/3t3, 72 h
[13] = (§3) Cytotoxicity against mouse BALB/3T3 cells assessed as cell growth inhibition measured after 72 hrs by coomassie brilliant blue staining based total cellular protein assay; conditions: BALB/3T3 cells
[14] = tested on: BALB/3T3; test: as §3; conditions: balb/3t3, 72 h
[15] = (§4) Cytotoxicity against mouse BALB/3T3 cells assessed as cell growth inhibition measured after 24 hrs by LDH assay; assay type: cell-based; conditions: BALB/3T3 cells
[16] = tested on: BALB/3T3; test: as §4; assay type: cell-based; conditions: balb/3t3, 24 h
[17] = (§5) Cytotoxicity against mouse BALB/3T3 cells assessed as cell growth inhibition measured after 72 hrs by LDH assay; assay type: cell-based; conditions: BALB/3T3 cells
[18] = tested on: BALB/3T3; test: as §5; assay type: cell-based; conditions: balb/3t3, 72 h
[19] = tested on: HepG2; test: Induction of apoptosis in human HepG2 cells assessed as activation of cleaved PARP1 expression at 0.7 uM incubated for 24 hrs by Western blot analysis; assay type: functional, cell-based
[20] = tested on: HCT-116; test: Induction of apoptosis in human HCT-116 cells assessed as activation of cleaved PARP1 expression at 0.7 uM incubated for 24 hrs by Western blot analysis; assay type: functional, cell-based
[21] = tested on: MCF7; test: Induction of apoptosis in human MCF7 cells assessed as activation of cleaved PARP1 expression at 0.7 uM incubated for 24 hrs by Western blot analysis; assay type: functional, cell-based
[22] = target: Mitogen-activated protein kinase; ERK1/ERK2 (Homo sapiens) (UniProt P27361+P28482); test: Inhibition of ERK1/2 phosphorylation in human HepG2 cells at 45 uM after 24 hrs by Western blotting analysis; assay type: cell-based
[23] = tested on: HepG2; test: Induction of apoptosis in human HepG2 cells assessed as increase in Cdk2 expression at 45 uM after 24 hrs by Western blot analysis; assay type: functional, cell-based
[24] = tested on: HCT-116; test: Induction of apoptosis in human HCT-116 cells assessed as decrease in Cdk2 expression at 45 uM after 24 hrs by Western blot analysis; assay type: functional, cell-based
[25] = tested on: MCF7; test: Induction of apoptosis in human MCF7 cells assessed as decrease in Cdk2 expression at 45 uM after 24 hrs by Western blot analysis; assay type: functional, cell-based
[26] = tested on: MCF7; test: Induction of cell cycle arrest in human MCF7 cells assessed as decrease in phospho-Rb expression at 45 uM measured after 24 hrs by Western blot analysis; assay type: functional, cell-based
[27] = tested on: HCT-116; test: Induction of DNA damage in human HCT-116 cells assessed as increase in olive tail moment incubated at 0.7 uM measured after 24 hrs by alkaline Comet assay; assay type: functional
[28] = tested on: HepG2; test: Induction of DNA damage in human HepG2 cells assessed as increase in olive tail moment incubated at 0.7 uM measured after 24 hrs by alkaline Comet assay; assay type: functional
[29] = tested on: BALB/3T3; test: Induction of DNA damage in mouse BALB/3T3 cells assessed as increase in tail length incubated at 55 uM measured after 24 hrs by alkaline Comet assay; assay type: cell-based; conditions: balb/3t3, 24 h
[30] = tested on: Salmon testes DNA; test: Displacement of methyl green from salmon sperm DNA at 1 uM measured after 2 hrs by fluorescence plate reader method relative to control; assay type: cell-based; conditions: Salmo salar, Spermatozoa
[31] = Selectivity index, ratio of GI50 for human HaCaT cells to GI50 for human HepG2 cells; assay type: toxicity; conditions: HaCaT cells versus HepG2 cells, read-out: RatioGI50
[32] = Selectivity index, ratio of GI50 for human HaCaT cells to GI50 for human MCF7 cells; assay type: toxicity; conditions: HaCaT cells versus MCF7 cells, read-out: RatioGI50
[33] = Selectivity index, ratio of GI50 for human HaCaT cells to GI50 for human A549 cells; assay type: toxicity; conditions: HaCaT cells versus A549 cells, read-out: RatioGI50
[34] = Selectivity index, ratio of GI50 for human HaCaT cells to GI50 for human THP-1 cells
[35] = Selectivity index, ratio of GI50 for mouse BALA/3T3 cells to GI50 for human HCT-116 cells; assay type: toxicity; conditions: BALA/3T3 cells versus HCT-116 cells, read-out: RatioGI50
[36] = Selectivity index, ratio of GI50 for human HaCaT mouse BALA/3T3 cells to GI50 for human A549 cells; assay type: toxicity; conditions: read-out: RatioGI50
[37] = Selectivity index, ratio of GI50 for mouse BALA/3T3 cells to GI50 for human WM793 cells
[38] = Selectivity index, ratio of GI50 for mouse BALA/3T3 cells to GI50 for human THP-1 cells
[39] = Selectivity index, ratio of GI50 for mouse BALA/3T3 cells to GI50 for human HepG2 cells measured after 48 hrs by neutral red uptake assay; assay type: toxicity; conditions: BALA/3T3 cells versus HepG2 cells, read-out: Selectivity Index
[40] = Selectivity index, ratio of GI50 for mouse BALA/3T3 cells to GI50 for human HepG2 cells measured after 72 hrs by neutral red uptake assay; assay type: toxicity; conditions: BALA/3T3 cells versus HepG2 cells, read-out: Selectivity Index
[41] = Selectivity index, ratio of GI50 for mouse BALA/3T3 cells to GI50 for human HepG2 cells measured after 24 hrs by coomassie brilliant blue staining based total cellular protein assay; assay type: toxicity; conditions: BALA/3T3 cells versus HepG2 cells, read-out: Selectivity Index
[42] = Selectivity index, ratio of GI50 for mouse BALA/3T3 cells to GI50 for human HepG2 cells measured after 48 hrs by coomassie brilliant blue staining based total cellular protein assay; assay type: toxicity; conditions: BALA/3T3 cells versus HepG2 cells, read-out: Selectivity Index
[43] = Selectivity index, ratio of GI50 for mouse BALA/3T3 cells to GI50 for human HepG2 cells measured after 24 hrs by LDH assay; assay type: toxicity; conditions: BALA/3T3 cells versus HepG2 cells, read-out: Selectivity Index
[44] = Selectivity index, ratio of GI50 for mouse BALA/3T3 cells to GI50 for human HepG2 cells measured after 48 hrs by LDH assay; assay type: toxicity; conditions: BALA/3T3 cells versus HepG2 cells, read-out: Selectivity Index

Sequence of Mitogen-activated protein kinase; ERK1/ERK2 (Homo sapiens) (P27361 whole entry, looked up): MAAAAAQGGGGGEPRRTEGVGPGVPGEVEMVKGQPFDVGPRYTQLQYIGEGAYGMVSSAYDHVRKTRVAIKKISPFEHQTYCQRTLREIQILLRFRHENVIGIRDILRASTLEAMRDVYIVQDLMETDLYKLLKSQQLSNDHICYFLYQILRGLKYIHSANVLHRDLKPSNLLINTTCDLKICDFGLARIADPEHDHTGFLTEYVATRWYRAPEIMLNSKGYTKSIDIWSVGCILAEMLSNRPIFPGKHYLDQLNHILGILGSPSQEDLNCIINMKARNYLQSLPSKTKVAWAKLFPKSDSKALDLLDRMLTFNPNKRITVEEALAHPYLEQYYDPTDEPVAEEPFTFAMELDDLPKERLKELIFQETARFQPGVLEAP
Sequence of Mitogen-activated protein kinase; ERK1/ERK2 (Homo sapiens) (P28482 whole entry, looked up): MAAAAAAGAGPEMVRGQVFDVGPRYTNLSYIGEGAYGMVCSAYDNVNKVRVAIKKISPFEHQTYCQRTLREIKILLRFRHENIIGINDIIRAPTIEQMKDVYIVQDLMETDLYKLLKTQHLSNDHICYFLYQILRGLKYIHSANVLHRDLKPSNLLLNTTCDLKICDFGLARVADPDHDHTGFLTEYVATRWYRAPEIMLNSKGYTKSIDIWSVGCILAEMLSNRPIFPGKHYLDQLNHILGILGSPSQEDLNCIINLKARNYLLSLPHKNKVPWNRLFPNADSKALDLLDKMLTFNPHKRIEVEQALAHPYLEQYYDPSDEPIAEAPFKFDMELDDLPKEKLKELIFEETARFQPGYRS

Question: Which GI50 [1] does the source give for `COC(=O)c1[nH]c2ccc(F)cc2c1/C=C1\SC(=S)NC1=O` here?
Answer: Its GI50 is 12.1 µM.

Question: What about the GI50 [2] of the same molecule?
Answer: Its GI50 is 0.8 µM.

Question: And the GI50 [3]?
Answer: Its GI50 is 80.4 µM.

Question: What about the GI50 at 72 h [4] of the same molecule?
Answer: The GI50 at 72 h was 98.3 µM.

Question: And the GI20 [5]?
Answer: Its GI20 is 0.3 µM.

Question: And the GI80 [5]?
Answer: Its GI80 is 79.4 µM.

Question: What about the GI50 ([5]; Homo sapiens, HepG2) of the same molecule?
Answer: The GI50 was 16.3 µM.

Question: And the GI20 [6]?
Answer: The GI20 was 2.4 µM.

Question: And the GI80 [6]?
Answer: Its GI80 is 80.7 µM.

Question: And the GI50 ([6]; Homo sapiens, HepG2)?
Answer: The GI50 was 40.1 µM.

Question: What about the GI20 [7] of the same molecule?
Answer: Its GI20 is under 0.01 µM.

Question: And the GI80 [7]?
Answer: The GI80 was 59.6 µM.

Question: And the GI50 ([7]; Homo sapiens, HepG2)?
Answer: The GI50 was 7.5 µM.

Question: What about the GI20 [8] of the same molecule?
Answer: The GI20 was under 0.01 µM.

Question: And the GI80 [8]?
Answer: The GI80 was 16.2 µM.

Question: And the GI50 ([8]; Homo sapiens, HepG2)?
Answer: Its GI50 is 0.06 µM.

Question: And the GI50 at 24 h [9]?
Answer: The GI50 at 24 h was 54.3 µM.

Question: And the GI20 [10]?
Answer: Its GI20 is 7.9 µM.

Question: And the GI80 [10]?
Answer: Its GI80 is over 100 µM.

Question: And the GI50 at 72 h [11]?
Answer: Its GI50 at 72 h is 51.5 µM.

Question: What about the GI20 [12] of the same molecule?
Answer: The GI20 was 0.7 µM.

Question: What about the GI80 [12] of the same molecule?
Answer: The GI80 was over 100 µM.

Question: And the GI50 at 72 h [13]?
Answer: Its GI50 at 72 h is 48.3 µM.

Question: And the GI20 [14]?
Answer: The GI20 was 1.6 µM.

Question: What about the GI80 [14] of the same molecule?
Answer: Its GI80 is over 100 µM.

Question: And the GI50 at 24 h [15]?
Answer: Its GI50 at 24 h is over 100 µM.

Question: What about the GI20 [16] of the same molecule?
Answer: Its GI20 is over 100 µM.

Question: And the GI80 [16]?
Answer: The GI80 was over 100 µM.

Question: What about the GI50 at 72 h [17] of the same molecule?
Answer: Its GI50 at 72 h is 62.8 µM.

Question: And the GI20 [18]?
Answer: Its GI20 is 2.9 µM.

Question: What about the GI80 [18] of the same molecule?
Answer: Its GI80 is over 100 µM.

Question: What about the Activity [19] of the same molecule?
Answer: Its Activity is “Active”.

Question: And the Activity [20]?
Answer: Its Activity is “Active”.

Question: What about the Activity [21] of the same molecule?
Answer: Its Activity is “Active”.

Question: What about the inhibition [22] of the same molecule?
Answer: The inhibition was “inactive”.

Question: And the Activity [23]?
Answer: The Activity was “Active”.

Question: And the Activity [24]?
Answer: Its Activity is “Active”.

Question: And the Activity [25]?
Answer: The Activity was “Active”.

Question: What about the Activity [26] of the same molecule?
Answer: Its Activity is “Active”.

Question: What about the Activity [27] of the same molecule?
Answer: Its Activity is 3.1.

Question: And the Activity [28]?
Answer: Its Activity is 13.2.

Question: And the Activity [29]?
Answer: Its Activity is 8.4%.

Question: And the Activity [30]?
Answer: Its Activity is 1.7%.

Question: What about the selectivity ratio [31] of the same molecule?
Answer: The selectivity ratio was 5.75.

Question: And the selectivity ratio [32]?
Answer: Its selectivity ratio is 99.4.

Question: What about the selectivity ratio [33] of the same molecule?
Answer: Its selectivity ratio is 7.17.

Question: And the RatioGI50 [34]?
Answer: Its RatioGI50 is 1.11.

Question: And the selectivity ratio [35]?
Answer: The selectivity ratio was 86.9.

Question: What about the selectivity ratio [36] of the same molecule?
Answer: Its selectivity ratio is 7.17.

Question: What about the RatioGI50 [37] of the same molecule?
Answer: Its RatioGI50 is 0.87.

Question: And the RatioGI50 [38]?
Answer: The RatioGI50 was 1.11.

Question: What about the selectivity ratio at 48 h [39] of the same molecule?
Answer: Its selectivity ratio at 48 h is 4.1.

Question: And the selectivity ratio at 72 h [40]?
Answer: The selectivity ratio at 72 h was 8.9.

Question: And the selectivity ratio at 24 h [41]?
Answer: Its selectivity ratio at 24 h is 1.

Question: What about the selectivity ratio at 48 h [42] of the same molecule?
Answer: The selectivity ratio at 48 h was 2.

Question: And the selectivity ratio at 24 h [43]?
Answer: The selectivity ratio at 24 h was 323.

Question: What about the selectivity ratio at 48 h [44] of the same molecule?
Answer: The selectivity ratio at 48 h was 1500.
